The values that follow come from US11679112B2, “Cancer treatments using combinations of CDK and ERK inhibitors” (BIOMED VALLEY DISCOVERIES, INC., priority 2013, dated 2023).

Structures are written as SMILES.

The subject of assay [1] is H1437 cells. Put plainly: Single agent proliferation assay, CellTiter-Glo, H1437. The format is cell-based. Conditions: Homo sapiens; for inhibition at 3 µM: NCI-H1437, @3 μM; for IC50: NCI-H1437, 72 h, read-out: Relative IC50. As for the experimental part: (§1) Cells were seeded in 96-well plates at the densities indicated in Table 4 in RPMI containing 10% FBS and allowed to adhere overnight prior to addition of compound or vehicle control. Compounds were prepared from DMSO stocks to give the desired final concentrations. The final DMSO concentration was constant at 0.1%. Test compounds were incubated with the cells for 72 h at 37° C., 5% CO2 in a humidified atmosphere. CellTiter-Glo® reagent (Promega, Madison, Wis.) was added according to manufacturer's instructions and luminescence detected using the BMG FLUOstar plate reader (BMG Labtech, Ortenberg, Germany). A duplicate set of assay plates was incubated with 10 μg/ml Hoechst 33342 stain (Invitrogen, Grant Island, N.Y.) in complete growth medium for 1 h at 37° C., 5% CO2 in a humidified atmosphere. The medium was then removed and replaced with PBS and fluorescence detected using a BMG FLUOstar Omega plate reader (BMG labtech, Ortenberg, Germany). The average media only background value was deducted and the data analysed using a 4-parameter logistic equation in GraphPad Prism (GraphPad Software, La Jolla, Calif.).
(§2) The effects of BVD-523, the CDK4/6 inhibitors, another ERK inhibitor (SCH772984), and a reference MEK inhibitor (Trametinib), as single agents on cell viability was assessed after 72 h using two methods (FIGS. 2A-2L). The first method was by quantitating cellular ATP levels using CellTiter-Glo® (Promega, Madison, Wis.). The second method was by quantitating total amount of DNA in an assay well after staining the DNA with Hoechst stain.

Assay [2] has as its system H226 cells. Briefly: Single agent proliferation assay, CellTiter-Glo, H226. The format is cell-based. The settings on record: Homo sapiens; for inhibition at 3 µM: NCI-H226, @3 μM; for inhibition at 10 µM: NCI-H226, @10 μM. The protocol:
as §1, §2
On the technique in general: In ATP-based viability assays light output follows the ATP content of the culture.

Assay [3] has as its system H1437 cells. Briefly: Single agent proliferation assay, Hoechst stain, H1437. The format is cell-based. The settings on record: Homo sapiens; for IC50: NCI-H1437, 72 h, read-out: Relative IC50. The protocol:
as §1, §2

Assay [4] relates to A549 cells. Briefly: Single agent proliferation assay, CellTiter-Glo, A549. The format is cell-based. The settings on record: Homo sapiens; for IC50: 72 h, read-out: Relative IC50. As for the experimental part:
as §1, §2

For assay [5], the system named is ERK. The settings on record: Morris et al., 2013; cited from earlier work.
The subject of assay [6] is H226 cells. Briefly: Single agent proliferation assay, Hoechst stain, H226. In kind it is cell-based. The settings on record: Homo sapiens; for IC50: NCI-H226, 72 h, read-out: Relative IC50. As for the experimental part: as §1, §2
Assay [7] deals with H2122 cells. Briefly: Single agent proliferation assay, CellTiter-Glo, H2122. In kind it is cell-based. Conditions: Homo sapiens; for IC50: NCI-H2122, 72 h, read-out: Relative IC50. The protocol: as §1, §2
Assay [8] deals with A549 cells. Put plainly: Single agent proliferation assay, Hoechst stain, A549. In kind it is cell-based. The settings on record: Homo sapiens, 72 h, read-out: Relative IC50. As for the experimental part:
as §1, §2

Assay [9] concerns H2122 cells. Briefly: Single agent proliferation assay, Hoechst stain, H2122. The format is cell-based. Conditions: Homo sapiens, NCI-H2122, 72 h, read-out: Relative IC50. The protocol: as §1, §2
Assay [10] deals with MAPK signaling components in A375 cells. Put plainly: Western blot of MAPK, cell cycle and apoptosis signaling in A375 cells. The format is cell-based, human. As for the experimental part:
(§3) For Western blot studies, HCT116 cells (5×10^6) were seeded into 10 cm dishes in McCoy's 5A plus 10% FBS. A375 cells (2.5×10^6) were seeded into 10 cm dishes in DMEM plus 10% FBS. Cells were allowed to adhere overnight prior to addition of the indicated amount of test compound (BVD-523) or vehicle control. Cells were treated for either 4 or 24 hours before isolation of whole-cell protein lysates, as specified below. Cells were harvested by trypsinisation, pelleted and snap frozen. Lysates were prepared with RIPA (Radio-Immunoprecipitation Assay) buffer, clarified by centrifugation and quantitated by bicinchoninic acid assay (BCA) assay. 20-50 μg of protein was resolved by SDS-PAGE electrophoresis, blotted onto PVDF membrane and probed using the antibodies detailed in Table 2 (for the 4-hour treatment) and Table 3 (for the 24-hour treatment) below.

The subject of assay [11] is MAPK signaling in HCT-116 cells. Briefly: Western blot of MAPK signaling in HCT116 cells. The format is cell-based, human. Conditions: HCT116, 4 hours, micromolar concentrations. As for the experimental part: as §3
Background: Immunoblotting shows a protein as a band on a membrane.

The mark [12] stands for this setting: read-out: Maximal percentage inhibition.

In general, inhibition refers to the drop in the measured response relative to a control, in per cent. As usually defined, the IC50 is the concentration that gives 50% inhibition. On to `O=C(Nc1ccc2[nH]nc(-c3ccncc3)c2c1)[C@@H]1CCN(CC(=O)N2CCN(c3ccc(-c4ncccn4)cc3)CC2)C1` [SCH772984], for which the inhibition at 3 µM in assay [1] (setting [12]) was 57%; in [2] (setting [12]), 35%; in assay [3] (NCI-H1437, @3 μM, read-out: Maximal percentage inhibition) it was 63%; in [6] (NCI-H226, @3 μM, read-out: Maximal percentage inhibition) it was 49%. The IC50 in [4] was 1100 nM; in assay [7], 630 nM; in assay [8], 740 nM; in assay [9] it was 530 nM. Besides, the “effect on autophosphorylation of ERK” value in assay [5] is given as “inhibits autophosphorylation of ERK”.

As for `CC(=O)c1c(C)c2cnc(Nc3ccc(N4CCNCC4)cn3)nc2n(C2CCCC2)c1=O` [Palbociclib], the inhibition at 3 µM in assay [1] (setting [12]) came to 29%; in assay [2] (setting [12]), 20%; in assay [4] (@3 μM, read-out: Maximal percentage inhibition), 41%; in assay [7] (NCI-H2122, @3 μM, read-out: Maximal percentage inhibition), 48%. Also, the IC50 was 220 nM in assay [3], 56 nM in [6], 130 nM in [8] and 150 nM in assay [9].

For `CC(=O)Nc1cccc(-n2c(=O)n(C3CC3)c(=O)c3c(Nc4ccc(I)cc4F)n(C)c(=O)c(C)c32)c1` [Trametinib], the IC50 stood at 2 nM in assay [1]; 3 nM in assay [3]; 5 nM in assay [4]; 2 nM in assay [6]; 3 nM in assay [7]; 5 nM in [8]. The IC50 in assay [9] stood at 3 nM. Moreover, the inhibition at 1 µM in [2] (NCI-H226, @1 μM, read-out: Maximal percentage inhibition) is 57%.

For `CC(C)Nc1cc(-c2c[nH]c(C(=O)N[C@H](CO)c3cccc(Cl)c3)c2)c(Cl)cn1` [BVD-523], the IC50 is 1200 nM in [1]; 1400 nM in assay [3]; 730 nM in assay [4]; 450 nM in assay [7]; 590 nM in assay [8]; 450 nM in assay [9]. Moreover, in [10] (24 hours), the cyclin-D1 level result is given as “greatly reduced”. In addition, the “phosphorylation of ERK-dependent residues (T359/S363) in RSK 1 and 2 proteins” value is “reduced” in assay [10] (A375, 4 hours, micromolar concentrations) and “reduced” in [11]. Further, the Bim-EL level result in assay [10] (A375, prolonged treatment) is “increased”. The “increased apoptosis (PARP cleavage)” value in [10] (A375, prolonged treatment) was “not observed”. Also, the “MAPK feedback phosphatase DUSP6 level” value in assay [10] (BRAF mutant cell line, 24 hours) was “greatly reduced”. The “concentrations required to induce changes in substrate phosphorylation and effector targets of ERK” value in assay [10] (RAF and RAS mutant cancer cells, acute and prolonged treatment) is listed as “low micromolar range”. Further, the “effect on autophosphorylation of ERK” value in assay [10] (see FIG. 1) was “allows for the autophosphorylation of ERK while still inhibiting ERK”. For the same molecule, the inhibition at 10 µM in assay [2] (setting [12]) is 34%; in assay [6] (NCI-H226, @10 μM, read-out: Maximal percentage inhibition) it was 58%.

As for `CN(C)C(=O)c1cc2cnc(Nc3ccc(N4CCNCC4)cn3)nc2n1C1CCCC1` [LEE-011], the inhibition at 10 µM in assay [1] (NCI-H1437, @10 μM, read-out: Maximal percentage inhibition) amounted to 30%; in assay [2] (setting [12]) it was 32%; in [4] (@10 μM, read-out: Maximal percentage inhibition) it was 49%; in assay [7] (NCI-H2122, @10 μM, read-out: Maximal percentage inhibition) it was 44%. The IC50 in assay [3] was 2800 nM; in assay [6], 370 nM; in [8] it was 700 nM; in assay [9] it was 450 nM.

On to `CC(=O)O[C@H]1C(=O)[C@@]2(C)[C@H]([C@H](OC(=O)c3ccccc3)[C@]3(O)C[C@H](OC(=O)[C@H](O)[C@@H](NC(=O)c4ccccc4)c4ccccc4)C(C)=C1C3(C)C)[C@]1(OC(C)=O)CO[C@@H]1C[C@@H]2O` [Paclitaxcel, Paclitaxel], for which the IC50 is 7 nM in [1]; 3 nM in assay [2] (NCI-H226, 72 h, read-out: Relative IC50); 3 nM in assay [3]; 3 nM in [4]; 3 nM in [6]; 3 nM in [7]. In addition, the half-maximal inhibitory concentration (IC50) in assay [8] and in [9] was 2 nM throughout.
